Series [1] in a line: Differential scanning calorimetry (DSC) of drug samples. Type of series: physicochemical. To be noted: for Tg of drug / ΔHc: DSC scanning rate 10° C./min. The protocol:
The amorphous state of the amorphous drug core is determined by subjecting a population of nanoparticles that comprise one or more nanoparticles that comprise the recited amorphous drug core to differential scanning calorimetry (DSC). In an embodiment, a DSC method according to the invention used a Perkin-Elmer DSC-7 or a Diamond DSC calorimeter applied for the measurement of specific transition temperatures of tested samples. […] The instrument was calibrated using indium, tin and zinc certified reference materials (CRMs) The amorphous state of the amorphous drug core, as measured by DSC is expressed as a weight fraction of the weight of amorphous material in the amorphous drug core to the total weight of the amorphous drug core, expressed as an average value across the population of nanoparticles being measured. For instance, if a population of nanoparticles was measured using DSC, and the amorphous state was determined to be a particular value for the population, that value would be considered the average amorphous state for each nanoparticle within the population. An inventive amorphous drug core may contain a small amount of crystalline drug. […] “Glass forming ability” or “GFA” means the ratio of Tg to Tm. It can be calculated as: […] is a measure of the tendency of an amorphous drug to remain in an amorphous state. […] “Glass transition temperature” or “Tg” means that temperature at which a material transitions to a glassy state from a liquid state, as measured at standard atmospheric pressure. […] C. […] C.
For orientation: DSC measures the heat that a sample takes up or gives off during a temperature scan.

A short description of the next series: Water solubility of drug. Type of series: physicochemical. To be noted: 25 °C. The protocol: “Water solubility” means a measure of the maximum possible concentration of a drug dissolved in water. The water temperature may be specified; in an embodiment water solubility is determined at 25 Deg. C. Units of measurement of water solubility are typically mass/volume, such as mg/ml. The water solubility of drug useful in the practice of the present invention is less than or equal to about 1 mg/ml at 25 Deg. C.; preferably less than or equal to about 0.1 mg/ml at 25 Deg. C.; more preferably less than or equal to about 0.01 mg/ml at 25 Deg. C., still more preferably less than or equal to about 1 microgram/ml at 25 Deg. C.

The term solubility denotes the dissolved amount per volume that the medium holds. Lower therefore signals a poorly soluble substance.

In the case of `O=C(NN1CCCCC1)c1nn(-c2ccc(Cl)cc2Cl)c2c1CCC/C2=C\c1ccc(F)cc1` [Amorphous COMPOUND 1], in series [1], the Tg of drug was 87.07 °C and the ΔHc was found to be 0 J/g.
In the case of `CC(C)(C)c1ccc(C(O)CCCN2CCC(C(O)(c3ccccc3)c3ccccc3)CC2)cc1` (stereo not shown) [terfenadine, Terfenadine], in series [1], the “glass forming ability (GFA), Tg/Tm” value was determined as 0.77.
For `CC(C)(C)c1ccc(C(O)CCCN2CCC(C(O)(c3ccccc3)c3ccccc3)CC2)cc1` (stereo not shown) [Amorphous terfenadine, terfenadine], in series [1], the Tg of drug amounted to 53.77 °C and the ΔHc turned out to be 10.35 J/g. Besides, in series [1] (relative to original crystallinity), the “crystallinity (crystalline portion) by DSC” value is “less than 20%”.
Compound `O=C(NN1CCCCC1)c1nn(-c2ccc(Cl)cc2Cl)c2c1CCC/C2=C\c1ccc(F)cc1` [Crystalline COMPOUND 1] came in with a ΔHc in series [1] of 77.64 J/g.
Consider `O=C(NN1CCCCC1)c1nn(-c2ccc(Cl)cc2Cl)c2c1CCC/C2=C\c1ccc(F)cc1` [COMPOUND 1], for which the solubility in “Water solubility of drug” is at most 0.2 ng/mL. Besides, the “glass forming ability (GFA), Tg/Tm” value in series [1] is 0.81.
In turn, `CC(C)(C)c1ccc(C(O)CCCN2CCC(C(O)(c3ccccc3)c3ccccc3)CC2)cc1` (stereo not shown) [Crystalline terfenadine, terfenadine] registered a ΔHc in series [1] of 108.63 J/g.

Source of the values: patent US20080299210A1, “STABLE NANOSIZED AMORPHOUS DRUG” (priority 2006, published 2008).
